Experimental data published in patent US8178132B2, “Magnesium-containing food compositions” (Magceutics, Inc., priority 2007, dated 2012).

Columns and labels:
[1] = test system: mice genetically altered to present symptoms of Alzheimer's disease (AD); assay: Modified Morris water maze test in AD mice; assay type: in vivo; conditions: AD mice aged 13 months, compared with aricept
Description: Another group, the control group, of 10 mice that were genetically altered to present symptoms of AD were fed a Control Diet, a diet of normal solid food and water, for 30 days.
The pool used was a pool of water in a circular metal tank (150 cm in diameter and 50 cm in depth) having a water height of 30 cm and a water temperature that was maintained at ˜22° C. The pool was placed in a moderately lit area and surrounded by a black curtain. An acrylic platform (15 cm in diameter) was placed 2 cm below the surface of the water in the middle of one quadrant of the pool, equidistant from the center and the edge of the pool. Outside the pool, a cue was placed so as to be visible to a mouse in the maze, allowing a mouse to use it as a landmark for spatial orientation. The cue remained unchanged throughout the test period.
On the first day of the training and testing period, the water in the pool was transparent, such that the platform was visible. Each mouse was trained to swim towards the platform and to stand on the platform so as not to be submerged in the pool. […] The amount of time the mouse took to find the platform, referred to as “escape latency,” was recorded for each trial.
On the second day of the training and testing period, a small quantity of milk was added to the water in the pool, such that the pool was opaque and the platform was no longer visible. […]

[2] = test system: rats
Description: Twenty 2-month old, male Sprague Dawley (SD) rats were housed in a temperature-controlled room (22° C. to 25° C.) with a dark period from 08:00 pm to 08:00 am daily. […] Over 7 days before the training and trial period began, each rat was handled and habituated to the maze and to Kellogg's Froot Loop cereal.
Each rat underwent a test of one trial, followed by an interval of 10-minutes, followed by another trial, and so on, for a total of 6 trials in one day. In each trial, each rat went through a sample run in the maze, followed by an interval of 15 seconds, followed by a choice run in the maze. In the sample run, the subject rat was forced to go to the left or to the right by the presence of a block, according to a pseudorandom sequence (with an equal number of left turns and right turns, and no more than two consecutive turns in the same direction). As a reward, Froot Loop cereal was available in the food well at the end of the run, regardless of the direction that was taken by virtue of the block. In the choice run, the block that had been present in the preceding sample run was removed, and the rat was allowed to choose to go to the left or to the right. As a reward, Froot Loop cereal was available in the food well at the end of the run, only when the rat had made a “correct choice” by choosing the direction opposite that taken in the preceding sample run. […]
On the first day (designated day 0) of the feeding of the two groups, as just described, each rat underwent a preliminary test of one trial, followed by an interval of 10 minutes, followed by another trial, and so on, for a total of 4 trials in one day. […] In this preliminary test, the choice accuracy level, or ratio of correct choices made, co, to the number of number of trials in the test, no, was determined for each rat. […]
Three groups of animals (young, aging, and magnesium-treated aging rats) were used. […] Spatial working memory was assessed using a T-maze non-matching-to-place task. […] Spatial working memory was first assessed on an elevated T-maze. […]

[3] = test system: rats; assay: Novel object recognition test in rats; assay type: in vivo, Sprague-Dawley rats
Description: In this example, the effect of magnesium supplementation on recognition memory was tested. Three groups of rats were used in these experiments: 1) young rats (three months old); aging rats (12-14 months old), and; 3) magnesium-treated aging rats (12-14 months old, diet supplemented with 6 mg/kg MgCl2 from 8 months of age). We used experimentally naive, female, Sprague-Dawley young […], aging (12-14 month old) and […] rats (Charles River) at the beginning of the behavior experiments. They were housed two per cage with continuous access to food and water under a 12:12 light-dark cycle, with light onset at 8:00 a.m. […] All experiments involving animals were approved by the Massachusetts Institute of Technology's and Tsinghua University Committees on Animal Care.
The three groups of rats were tested for recognition memory using an object recognition test with a single exposure to the object during training. The task is based on the natural tendency of rodents to explore new objects and tests the animals' memory capacity for distinguishing novel versus familiar objects.
Briefly, the rats were first individually habituated to the personnel and then to open-field arena during 2 weeks. […] The retention intervals were 10 min and 24 hours. Objects were cleaned thoroughly between trials with 20% ethanol solution to ensure the absence of olfactory cues. The particular objects for a given trial were randomly determined, but each object was used for only one trial per rat. Memory of the familiar object is associated with increased exploration of the new object and an exploration index (% correct) is calculated as new object inspection time/30.
In this example, the effect of magnesium supplementation on memory consolidation was studied. […]
Briefly, the rats were first individually habituated to the personnel and then to open-field arena during 2 weeks. […] The particular objects for a given trial were randomly determined, but each object was used for only one trial per rat. […]

[4] = test system: rats; conditions: 2% in food for 8 days, cited from earlier work

**Q.** Which “reduction of the effects of AD on learning capacity, comparison of anti-AD drugs” value [1] does the source give for `CC12CC3CC(C)(C1)CC(N)(C3)C2` [memantine] here?
**A.** better at reducing the effects of AD on learning capacity than aricept

**Q.** For `[Cl-].[Cl-].[Mg+2]` [MgCl2, magnesium chloride], which “asymptotic choice accuracy level” value ([2]; after 8 days of training, 15 s delay) is on record?
**A.** ~94%

**Q.** And the “spatial working memory at increased delay” value ([2]; aging rats, MgCl2 diet, 2 and 5 min delays)?
**A.** significantly enhanced the performance of the aging rats at 2 and 5 min delays

**Q.** And the “learning in non-matching-to-place task” value ([2]; aging rats, MgCl2 diet, 15 sec delay)?
**A.** performed significantly better from their first trials

**Q.** What about the “novel object exploration preference, 10 minute retention interval” value ([3]; aging rats 12-14 months, 6 mg/kg MgCl2 from 8 months of age, single training) of the same compound?
**A.** preferentially explored the novel object to the same extent as young rats

**Q.** And the “novel versus familiar object discrimination, 24 hours retention” value ([3]; aging rats, 6 mg/kg MgCl2, single training)?
**A.** lose there ability to distinguish novel versus familiar objects

**Q.** And the “preference for the novel object, 24-hour retention after spaced training” value ([3]; aging rats, two training sessions separated by 10 minutes)?
**A.** retained a high level of preference

**Q.** For `[O]=[Mg]` [magnesium oxide], which side-effect [4] is on record?
**A.** diarrhea and weight loss

**Q.** What about the cognitive function ([4]; young (9-month) and aged (25-month) rats) of the same compound?
**A.** some sign of improvement of cognitive function
